# Earlier results, collected in patent US6368616B1, “Aqueous suspension for nasal administration of loteprednol” (Senju Pharmaceutical Co., Ltd., priority 1997, dated 2002).
compound,measurement,value
"CCOC(=O)O[C@]1(C(=O)OCCl)CC[C@H]2[C@@H]3CCC4=CC(=O)C=C[C@]4(C)[C@H]3[C@@H](O)C[C@@]21C [loteprednol etabonate, Loteprednol etabonate]",solubility in water,substantially insoluble in water
